Values quoted from earlier work as cited in US20080103199A1, “TREATMENT OF PERVASIVE DEVELOPMENTAL DISORDERS” (priority 2006, published 2008).

Assays:
submissive rats = settings: treatment of the submissive subject, 3 weeks; literature (Malatynska 2002); cited from earlier work
dominant rats = settings: administered to dominant rats; literature (Malatynska 2002); cited from earlier work

## CNCCCN1c2ccccc2CCc2ccccc21 [desipramine]
Submissive rats
  Effect on submissive behavior: reduced submissive behavior

## CN1C(=O)CN=C(c2ccccc2)c2cc(Cl)ccc21 [diazepam]
Submissive rats
  Effect on submissive behavior: ineffective

## CNCCC(Oc1ccc(C(F)(F)F)cc1)c1ccccc1 (centres unmarked) [fluoxetine]
Submissive rats
  Effect on submissive behavior: reduced submissive behavior

## CN(C)CCCN1c2ccccc2CCc2ccccc21 [imipramine]
Submissive rats
  Effect on submissive behavior: reduced submissive behavior

## CCCC(CCC)C(=O)[O-].[Na+] [sodium valproate]
Dominant rats
  Effect on competitive behavior of dominant rats: significantly reduced competitive behavior
